Here are results for 22 compounds from ChEMBL document CHEMBL1201862, “PubChem BioAssay data set” (2004).

Some test systems named below: KM-20L2; M19-MEL; DMS-114; HOP-18; DLD-1; SNB-78; DMS-273; XF498; RXF 631.
What all share (experiment): growth of human tumour cells (NCI), 48 h

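Protocol summary: plate cells (96-well), add compound at 5 concentrations, incubate 48 h, interpolate endpoints linearly. Here, GI50 denotes the concentration required for 50% inhibition of growth.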 Active and inactive are the calls of the source. Rule as the data show it: active = GI50 up to about 1.1 µM and inactive = higher.

Turning to `COC(=O)C12OCC34C(CC5C(C)=C(O)C(=O)CC5(C)C3C(O)C1O)OC(=O)C(OC(=O)C=C(C)C)C24` (stereo not drawn), the GI50 with KM-20L2 was > 500 µM (inactive); in the test on M19-MEL, 287 µM (inactive); in the test with DMS-114, 167 µM (inactive); in the test on HOP-18, > 500 µM (inactive); with DLD-1 it was 108 µM (inactive); in the test on SNB-78, > 476 µM (inactive). Also, the results for the GI50 with DMS-273 and in the test on XF498 were > 500 µM (inactive) and 335 µM (inactive), respectively.
Consider `CC(=O)c1c(C)[n+]([O-])c2cc(C)c(C)cc2[n+]1[O-]`, for which the GI50 in the test with KM-20L2, in the test with RXF 631, in the test with M19-MEL, with DMS-114, in the test with HOP-18 and in the test with DLD-1 was > 100 µM (inactive) in each case. Moreover, the GI50 with SNB-78, with DMS-273 and in the test with XF498 was > 100 µM (inactive) each time.
Take `COc1cc2c3c(c1OC)-c1cc4c(cc1CC3(C#N)N(C(=O)c1ccccc1)CC2)OCO4` (stereo not drawn): the GI50 in the test on KM-20L2 is > 80.9 µM (inactive); in the test with M19-MEL, 46.8 µM (inactive); in the test with DMS-114 it was 26.5 µM (inactive); in the test with HOP-18 it was 21.2 µM (inactive); in the test with DLD-1, > 55.7 µM (inactive); in the test with SNB-78, 11.4 µM (inactive). Also, the figures for the GI50 in the test on DMS-273 and in the test with XF498 were 21.6 µM (inactive) and 6.25 µM (inactive), respectively.
Regarding `COc1ccc(OC)c(CCc2cc(OC)c(OC)cc2C)c1`, the GI50 in the test on KM-20L2 is 49.8 µM (inactive); with M19-MEL it was 5.51 µM (inactive); in the test with DMS-114 it was 5.65 µM (inactive); in the test on DLD-1, 4.7 µM (inactive); in the test on SNB-78 it was 7.52 µM (inactive); in the test on XF498, 77.6 µM (inactive).
As to `Nc1nc2c(ncn2CCOC(c2ccccc2)P(=O)(O)O)c(=O)[nH]1` (stereo not drawn), the GI50 with KM-20L2, with DLD-1, in the test on SNB-78 and in the test on DMS-273 was > 100 µM (inactive) throughout.
Turning to `COC(=O)C(=O)C(/C(=N/N)C(=O)Nc1ccccc1C(N)=O)c1nc2ccc([N+](=O)[O-])cc2nc1O` (stereo not drawn), the GI50 in the test on KM-20L2, with M19-MEL, in the test on DMS-114, with DLD-1, with SNB-78 and in the test on DMS-273 was > 100 µM (inactive) in each case. In addition, the GI50 in the test with XF498 was > 100 µM (inactive).
As to `[O-][S+]1C(=c2ccc(=C3Sc4ccccc4S3)cc2)Sc2ccccc21` (stereo not drawn), the GI50 is 17.3 µM (inactive) in the test on KM-20L2; 19.7 µM (inactive) in the test on M19-MEL; 20.8 µM (inactive) in the test on DMS-114; > 100 µM (inactive) in the test on HOP-18; 27.4 µM (inactive) in the test on DLD-1; 53.3 µM (inactive) with SNB-78. In addition, the GI50 in the test on DMS-273 is 18.9 µM (inactive).
Consider `Cc1ccc([N+](=O)[O-])c2c(NCCCN(C)C)ccnc12`, for which the GI50 is 26.4 µM (inactive) in the test with KM-20L2 and 55.7 µM (inactive) in the test on SNB-78.
For `O=C1OCc2nc3c(c(-c4ccccc4C(F)(F)F)c21)C(=O)OC3`, the GI50 in the test on KM-20L2, in the test with M19-MEL, with DMS-114, with HOP-18, in the test with DLD-1 and in the test on SNB-78 was > 100 µM (inactive) each time. Also, the GI50 with DMS-273 was > 100 µM (inactive).
Regarding `COc1ccccc1C1C(C(=O)Nc2ccccc2)=C(C)NC(C)=C1C(=O)Nc1ccccc1`, the GI50 in the test on KM-20L2 was 94.8 µM (inactive); in the test with RXF 631, 62.8 µM (inactive); with M19-MEL it was 50.6 µM (inactive); with DMS-114, 41.8 µM (inactive); in the test on HOP-18 it was > 100 µM (inactive); in the test on SNB-78, > 100 µM (inactive). In addition, the results for the GI50 with DMS-273 and with XF498 were 34 µM (inactive) and 36.3 µM (inactive), respectively.
With `O=[N+]([O-])c1ccc(C2N3CCCCC3[C@H]3CCCCN23)cc1` (stereo partly drawn), the GI50 with KM-20L2, in the test on RXF 631, with M19-MEL, with HOP-18, in the test with DLD-1 and with SNB-78 was > 100 µM (inactive) each time. The GI50 with DMS-273 and with XF498 was > 100 µM (inactive) throughout.
Take `S=c1[nH]c(=S)c2nnn(-c3ccccc3)c2[nH]1`: the GI50 was > 100 µM (inactive) with KM-20L2; > 100 µM (inactive) in the test with M19-MEL; 5.97 µM (inactive) in the test on DMS-114; > 100 µM (inactive) with DLD-1; > 100 µM (inactive) with DMS-273; > 100 µM (inactive) with XF498.
For the compound `NC(=O)NNC(=O)CCn1[nH]c(=O)c(Cl)c(Cl)c1=O`, the GI50 with KM-20L2, with RXF 631, in the test with M19-MEL, with DMS-114, in the test with HOP-18 and with DLD-1 was > 100 µM (inactive) each time. In addition, the GI50 with SNB-78 and with DMS-273 was > 100 µM (inactive) each time.
Regarding `COc1ccc(C2=Nc3ccccc3SC(C)C2)cc1` (stereo not drawn), the GI50 is > 100 µM (inactive) in the test with KM-20L2; 68.4 µM (inactive) in the test with RXF 631; 94.6 µM (inactive) in the test with M19-MEL; 73.3 µM (inactive) in the test on DMS-114; 81.8 µM (inactive) with DLD-1; > 100 µM (inactive) with SNB-78. The GI50 in the test with DMS-273 is 78.7 µM (inactive).
`Cc1c(Cl)ccc2c1NC(=O)C2(O)CC(=O)c1ccc(Cl)cc1Cl` (stereo not drawn): the GI50 is > 50 µM (inactive) in the test with KM-20L2; 31 µM (inactive) with RXF 631; > 50 µM (inactive) in the test on M19-MEL; 38.5 µM (inactive) in the test with DMS-114; 21.8 µM (inactive) with SNB-78; > 50 µM (inactive) in the test on DMS-273. Besides, in the test with XF498, the GI50 is 16.7 µM (inactive).
For `CCc1cccc(C)c1NC(=O)C1=C(C)NC(C)=C(C(=O)Nc2c(C)cccc2CC)C1c1ccc2c(c1)OCO2`, the GI50 was 23.9 µM (inactive) with KM-20L2; 20 µM (inactive) in the test on RXF 631; 21.4 µM (inactive) in the test with M19-MEL; 16.2 µM (inactive) in the test on DMS-114; 20.5 µM (inactive) with DLD-1; 25.8 µM (inactive) with SNB-78. Moreover, the GI50 with XF498 is 15.7 µM (inactive).
Take `O=C(NCc1ccccc1)C1C(=O)C(=O)N(Cc2ccccc2)C1=O` (stereo not drawn): the GI50 in the test on KM-20L2, with RXF 631, in the test with M19-MEL, in the test on HOP-18, in the test on DLD-1 and with SNB-78 was > 100 µM (inactive) in each case. For the same compound, in the test with DMS-273, the GI50 is > 100 µM (inactive).
For the compound `CCOc1ccccc1NC(=O)CC1C(=O)Nc2ccccc2[S+]1[O-]` (stereo not drawn), the GI50 in the test on KM-20L2 was > 100 µM (inactive); in the test with M19-MEL, > 100 µM (inactive); in the test with DMS-114, > 100 µM (inactive); in the test with DLD-1, > 100 µM (inactive); in the test with SNB-78, > 100 µM (inactive); in the test with DMS-273, 66.5 µM (inactive). Besides, the GI50 in the test with XF498 was 44.8 µM (inactive).
Consider `COc1cc(C2c3cc4c(cc3[C@H](NC(=O)c3cccs3)C3COC(=O)[C@H]23)OCO4)cc(OC)c1OC` (stereo partly drawn), for which the GI50 in the test with KM-20L2 is 0.0199 µM (active); in the test with DMS-114, 0.0113 µM (active); with HOP-18 it was > 100 µM (inactive); in the test on DLD-1, 0.0297 µM (active); in the test with SNB-78 it was > 100 µM (inactive); with DMS-273 it was 0.0188 µM (active).
Turning to `C/C(=C\C(C)COCc1ccccc1)[C@H](COCc1ccccc1)OCc1ccccc1` (stereo partly drawn), the GI50 in the test with KM-20L2 was > 100 µM (inactive); with RXF 631, > 100 µM (inactive); with M19-MEL it was > 100 µM (inactive); in the test on DMS-114, 57.5 µM (inactive); in the test with SNB-78 it was > 100 µM (inactive); with DMS-273, > 100 µM (inactive). Moreover, the GI50 in the test on XF498 was 8.53 µM (inactive).
Regarding `CCC1C(=O)OCc2c1cc1n(c2=O)Cc2ccccc2-1` (stereo not drawn), the GI50 in the test on KM-20L2, with RXF 631, in the test with M19-MEL, with DMS-114, in the test on HOP-18 and with DLD-1 was > 100 µM (inactive) in each case. Also, the GI50 with SNB-78, in the test on DMS-273 and in the test on XF498 was > 100 µM (inactive) throughout.
For `CCCCCCCCCCCC[N+]12CC[N+](C)(CC1)CC2`, the GI50 with KM-20L2 is 14.9 µM (inactive); in the test on M19-MEL, 19.5 µM (inactive); in the test with DMS-114 it was 19.9 µM (inactive); with HOP-18, 43.6 µM (inactive); in the test with DLD-1, 13.8 µM (inactive); with SNB-78 it was 26.4 µM (inactive). In addition, the GI50 is 3.69 µM (inactive) in the test with DMS-273 and 20.7 µM (inactive) in the test on XF498.
